Counter-ions that a name gives are not always drawn.
Biological target: T1, rh beta tryptase (Homo sapiens, UniProt Q15661)
T1 construct: purchased Promega
Experiment: tryptase inhibition test (cleavage of N-p-tosyl-Gly-Pro-Lys-para-nitroaniline, p-nitroaniline measured at 405 nm)
Type: biochemical
Conditions: Tris HCl buffer pH 7.4 with calcium and heparin; substrate 0.6 mM; 5 minutes' pre-incubation, 5 minutes incubation at 37° C.
Procedure: The compounds according to the invention are characterised by their tryptase-inhibiting activity. This ability to inhibit tryptase was investigated using the test described as follows. The measurement is carried out in Tris HCl buffer (100 mM), which additionally contains calcium (5 mM) and heparin ([…]), at pH 7.4. The standard used is rh beta tryptase which may be obtained commercially from Promega, for example. The substrate used is N-p-tosyl-Gly-Pro-Lys-para-nitroaniline in a concentration of 0.6 mM. The substrate is digested with tryptase to form p-nitroaniline which can be measured at 405 nm. Usually, an incubation period of 5 minutes and an incubation temperature of 37° C. are chosen. The enzyme activity used is 0.91 U/ml. The measurements are carried out in an Autoanalyser (Cobas Bio) made by Hofmann LaRoche. The potential inhibitory substances are used in concentrations of 10 μM in the screening, the inhibition of the tryptase being given in percent. The IC50 is determined at over 70% inhibition (concentration at which 50% of the enzyme activity is inhibited). After 5 minutes' pre-incubation of the potential inhibitory substances, the substrate is added to start the reaction, the formation of p-nitroaniline being taken as a measurement of the enzyme activity after 5 minutes, after testing the linearity.

T1 sequence (Q15661 31-275): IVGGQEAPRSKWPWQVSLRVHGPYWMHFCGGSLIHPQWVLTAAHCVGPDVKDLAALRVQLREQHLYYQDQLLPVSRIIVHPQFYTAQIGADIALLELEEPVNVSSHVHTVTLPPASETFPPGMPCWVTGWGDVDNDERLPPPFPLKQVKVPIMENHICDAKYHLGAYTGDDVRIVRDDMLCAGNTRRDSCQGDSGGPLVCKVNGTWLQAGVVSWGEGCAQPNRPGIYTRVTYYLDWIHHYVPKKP

Compound	IC50 [nM]
Cn1c(CCc2ccc(C(=N)N)cc2)nc2cc(N(Cc3cccc4ccccc34)C(=O)CNCc3ccc(N)cc3)ccc21 [Example 23, N-{2-[2-(4-Amidinophenyl)-ethyl]-1-methyl-benzimidazol-5-yl}-N-( - naphthylmethyl)-[4-aminobenzylamino-acetamide]-trihydrochloride]	7
CN(C)CCCCC(=O)N(Cc1cccc2ccccc12)c1ccc2c(c1)nc(CCc1ccc(C(=N)N)cc1)n2C [Example 25, N-{2-[2-(4-Amidinophenyl)-ethyl]-1-methyl-benzimidazol-5-yl}-N-( - naphthylmethyl)-[5-dimethylamino-pentanoic acid amide]-dihydrochloride]	33
Cn1c(CCc2ccc(C(=N)N)cc2)nc2cc(N(Cc3cccc4ccccc34)C(=O)CCCCN)ccc21 [Example 24, N-{2-[2-(4-Amidinophenyl)-ethyl]-1-methyl-benzimidazol-5-yl}-N-( - naphthylmethyl)-[5-amino-pentanoic acid amide]-dihydrochloride]	29
CC(C)CN(C(=O)CCc1ccc(C(=N)N)cc1)c1ccc2c(c1)nc(CCc1ccc(C(=N)N)cc1)n2C [Example 5, N-{2-[2-(4-Amidinophenyl)-ethyl]-1-methyl-benzimidazol-5-yl}-N-isobutyl-[3-(4-amidinophenyl)-propionamide]-dihydrochloride]	61
Cn1c(CCc2ccc(C(=N)N)cc2)nc2cc(N(Cc3cccc4ccccc34)C(=O)CCC3CCNCC3)ccc21 [Example 38, N-{2-[2-(4-Amidinophenyl)-ethyl]-1-methyl-benzimidazol-5-yl}-N-( - naphthylmethyl)-[3-(piperidin-4-yl)-propionamide]-dihydrochloride]	47
Cn1c(CCc2ccc(C(=N)N)cc2)nc2cc(N(Cc3cccc4ccccc34)C(=O)CNCc3cccc(N)c3)ccc21 [Example 28, N-{2-[2-(4-Amidinophenyl)-ethyl]-1-methyl-benzimidazol-5-yl}-N-( - naphthylmethy)-[3-aminobenzylamino-acetamide]-trihydrochloride]	10
Cn1c(CCc2ccc(C(=N)N)cc2)nc2cc(N(Cc3ccccc3)C(=O)CCCN)ccc21 [Example 36, N-{2-[2-(4-Amidinophenyl)-ethyl]-1-methyl-benzimidazol-5-yl}-N-benzyl-[4-amino-butanoic acid amide]-dihydrochloride]	70
Cn1c(CCc2ccc(C(=N)N)cc2)nc2cc(N(Cc3cccc4ccccc34)C(=O)CCCCNC(=N)N)ccc21 [Example 27, N-{2-[2-(4-Amidinophenyl)-ethyl]-1-methyl-benzimidazol-5-yl}-N-(- naphthylmethyl)-[5-guanidino-pentanoic acid amide]-dihydrochloride]	26
Cn1c(CCc2ccc(C(=N)N)cc2)nc2cc(N(Cc3cccc4ccccc34)C(=O)CNCc3cccc(C(=N)N)c3)ccc21 [Example 8, N-{2-[2-(4-Amidinophenyl)-ethyl]-1-methylbenzimidazol-5-yl}-N-(α-naphthylmethyl)-[3-amidinobenzylaminoacetamide]-trihydrochloride]	16
Cn1c(CCc2ccc(C(=N)N)cc2)nc2cc(N(Cc3ccc4ccccc4c3)C(=O)CCc3ccc(C(=N)N)cc3)ccc21 [Example 11, N-{2-[2-(4-Amidinophenyl)-ethyl]-1-methyl-benzimidazol-5-yl}-N-β-naphthylmethyl-[3-(4-amidinophenyl)-propionamide]-dihydrochloride]	15
Cn1c(CCc2ccc(C(=N)N)cc2)nc2cc(N(Cc3cccc4ccccc34)C(=O)CNCc3ccc(C(=N)N)cc3)ccc21 [Example 22, N-{2-[2-(4-Amidinophenyl)-ethyl]-1-methyl-benzimidazol-5-yl}-N-( - naphthylmethyl)-[4-amidinobenzylamino-acetamide]-trihydrochloride]	10
CN(C(=O)CCc1ccc(C(=N)N)cc1)c1ccc2c(c1)nc(CCc1ccc(C(=N)N)cc1)n2C [Example 1, N-{2-[2-(4-Amidinophenyl)-ethyl]-1-methyl-benzimidazol-5-yl}-N-methyl-[3-(4-amidinophenyl)-propionamide]dihydrochloride]	64

The remaining lines, values ahead:

IC50 [nM]	Compound
4.9	Cn1c(CCc2ccc(C(=N)N)cc2)nc2cc(N(Cc3cccc4ccccc34)C(=O)CNCc3ccc(N4CCCC4)cc3)ccc21 [Example 82, N-{2-[2-(4-Amidinophenyl)-ethyl]-1-methyl-benzimidazol-5-yl}-N-( - naphthylmethyl)-[2-(N-4-pyrrolidin-1-ylbenzylamino)-acetamide]-dihydrochloride]
12	Cn1c(CCc2ccc(C(=N)N)cc2)nc2cc(N(Cc3cccc4ccccc34)C(=O)CNCc3ccc(O)cc3)ccc21 [Example 52, N-{2-[2-(4-Amidinophenyl)-ethyl]-1-methyl-benzimidazol-5-yl}-N-( - naphthylmethyl)-[2-(4-hydroxybenzylamino)-acetamide]-dihydrochloride]
13	Cn1c(CCc2ccc(C(=N)N)cc2)nc2cc(N(Cc3cccc4ccccc34)C(=O)CNCc3ccccc3[N+](=O)[O-])ccc21 [Example 49, N-{2-[2-(4-Amidinophenyl)-ethyl]-1-methyl-benzimidazol-5-yl}-N-( - naphthylmethyl)-[2-(2-nitrobenzylamino)-acctamide]-dihydrochloride]
72	Cn1c(CCc2ccc(C(=N)N)cc2)nc2cc(N(Cc3ccc4ccccc4c3)C(=O)CCC3CCN(Cc4ccccc4)CC3)ccc21 [Example 50]
13.1	Cn1c(CCc2ccc(C(=N)N)cc2)nc2cc(N(Cc3ccc(N)cc3)C(=O)CNCc3ccc(N)cc3)ccc21 [Example 73, N-{2-[2-(4-Amidinophenyl)-ethyl]-1-methyl-benzimidazol-5-yl}-N-(4-aminobenzyl)-[2-(4-aminobenzylamino)-acetamide]-dihydrochloride]
3.9	Cn1c(CCc2ccc(C(=N)N)cc2)nc2cc(N(Cc3cccc4ccccc34)C(=O)CN3CCC(Cc4ccccc4)CC3)ccc21 [Example 70, N-{2-[2-(4-Amidinophenyl)-ethyl]-1-methyl-benzimidazol-5-yl}-N-( - naphthylmethyl)-[2-(4-benzyl-4-piperidin-1-yl)-acetamide]-dihydro-chloride]
27	CCN(CC)CC(=O)N(Cc1cccc2ccccc12)c1ccc2c(c1)nc(CCc1ccc(C(=N)N)cc1)n2C [Example 66, N-{2-[2-(4-Amidinophenyl)-ethyl]-1-methyl-benzimidazol-5-yl}-N-( - naphthylmethyl)-[2-diethylaminoacetamide]-dihydrochloride]
39	Cn1c(CCc2ccc(C(=N)N)cc2)nc2cc(N(Cc3cccc4ccccc34)C(=O)CNCc3ccc(F)cc3)ccc21 [Example 61, N-{2-[2-(4-Amidinophenyl)-ethyl]-1-methyl-benzimidazol-5-yl}-N-( - naphthylmethyl)-[2-(4-fluorobenzylamino)-acetamide]-dihydrochloride]
38	Cn1c(CCc2ccc(C(=N)N)cc2)nc2cc(N(Cc3cccc4ccccc34)C(=O)CNCc3ccncc3)ccc21 [Example 48, N-{2-[2-(4-Amidinophenyl)-ethyl]-1-methyl-benzimidazol-5-yl}-N-( - naphthylmethyl)-[2-(pyridin-4-ylmethylamino)-acctamide]-dihydrochloride]
63.1	Cn1c(CCc2ccc(C(=N)N)cc2)nc2cc(N(Cc3cccc4ccccc34)C(=O)CN3CCCCC3)ccc21 [Example 81, N-{2-[2-(4-Amidinophenyl)-ethyl]-1-methyl-benzimidazol-5-yl}-N-( - naphthylmethyl)-[2-(piperidin-1-yl)-acetamide]-dihydrochloride]
13	Cn1c(CCc2ccc(C(=N)N)cc2)nc2cc(N(Cc3cccc4ccccc34)C(=O)CN3CCN(c4ccccn4)CC3)ccc21 [Example 40, N-{2-[2-(4-Amidinophenyl)-ethyl]-1-methyl-benzimidazol-5-yl}-N-( - naphthylmethyl)-[2-(1-pyridin-2-yl-piperazin-4-yl)-acetamide]-dihydro-chloride]
25	Cc1ccc(CNCC(=O)N(Cc2cccc3ccccc23)c2ccc3c(c2)nc(CCc2ccc(C(=N)N)cc2)n3C)cc1 [Example 60, N-{2-[2-(4-Amidinophenyl)-ethyl]-1-methyl-benzimidazol-5-yl}-N-(- naphthylmethyl)-[2-(4-methylbenzylamino)-acetamide]-dihydrochloride]
39	Cn1c(CCc2ccc(C(=N)N)cc2)nc2cc(N(Cc3cccc4ccccc34)C(=O)C=Cc3ccccn3)ccc21 [Example 67, N-{2-[2-(4-Amidinophenyl)-ethyl]-1-methyl-benzimidazol-5-yl}-N-( - naphthylmethyl)-[3-(pyridin-2-yl)-acrylamide]-hydrochloride]
15.9	CCOC(=O)C1CCN(CC(=O)N(Cc2cccc3ccccc23)c2ccc3c(c2)nc(CCc2ccc(C(=N)N)cc2)n3C)CC1 [Example 71, N-{2-[2-(4-Amidinophenyl)-ethyl]-1-methyl-benzimidazol-5-yl}-N-( - naphthylmethyl)-[2-(4-ethylcarboxylate-4-piperidin-1-yl)-acetamide]-dihydrochloride]

Source: patent US6407130B1, “Carboxamide-substituted benzimidazoles having tryptase-inhibiting activity” (Boehringer Ingelheim Pharma KG, priority 1999, dated 2002)
